{"source": "patent US10058538B2", "about": "“Compositions comprising substituted benzofuroquinolizine and α2-adrenergic agonists” (VETCARE OY, priority 2014, dated 2018)", "key": {"[1]": {"test_system": "dogs", "settings": "medetomidine 20 μg/kg IM or 10 μg/kg IV, compared with baseline values; cited from earlier work"}, "[2]": {"settings": "by reduction in heart rate and cardiac output after medetomidine administration; cited from earlier work"}, "[3]": {"test_system": "beagle dogs", "assay": "Composite sedation score (0-20) in dogs, medetomidine with or without MK-467 IM, reversal with atipamezole (Example 2)", "type": "in vivo, dog", "settings": "FIG. 3", "protocol": "Atipamezole (100 μg/kg IM) was administered at 30 min (arrow).\nThe study was designed as a prospective, randomized, experimental cross-over study.\nEach dog (n=7) was treated twice with a 14-days washout period: • Medetomidine (20 μg/kg) at 0 min, followed by Atipamezole (100 μg/kg) at 30 min • Medetomidine (20 μg/kg)+MK-467 (400 μg/kg) at 0 min, followed by Atipamezole (100 μg/kg) at 30 min\nMedetomidine and MK-467 were mixed in the same syringe and administered intramuscularly.\nSedation was scored by a veterinarian blinded for treatment with the following score:\nComposite Sedation Score (0-20)\n• 0 Standing • 1 Standing but staggers • 2 Sternal head up • 3 Sternal head down • 4 Lateral head down 2. […] Position of the Eye (0-2) • 0 Middle • 2 Turned down 4. Jaw and Tongue Relaxation (0-4) • 0 Normal, opens the jaws but resists manipulation of the tongue • 1 Bites jaws together • 2 Opens the jaws but strong resistance when tongue is pulled • 3 Slight resistance when tongue is pulled • 4 No resistance 5. Resistance to Positioning in Lateral Recumbency (0-3) • 0 Normal • 1 Turns back to sternal position • 2 Some resistance but stays in lateral recumbency • 3 No resistance or the position is already lateral 6. […]"}, "[4]": {"test_system": "dogs", "settings": "dexmedetomidine 10 μg/kg IV, MK-467 250, 500 and 750 μg/kg, especially with higher doses; cited from earlier work"}}}
{"smiles": "Cc1cccc(C(C)c2cnc[nH]2)c1C", "note": "(racemic) [medetomidine, (RS)-4-[1-(2,3-dimethylphenyl)ethyl]-3H-imidazole]", "values": [{"measurement": "heart rate (HR), mixed-venous partial pressure of oxygen (Pvo(2)) and cardiac index (CI)", "setting": "[1]", "value": "significantly lower"}, {"measurement": "mean arterial blood pressure (MAP), systemic vascular resistance (SVR) and oxygen extraction ratio (ER)", "setting": "[1]", "value": "significantly higher"}, {"measurement": "decrease of global Do2 (oxygen delivery)", "setting": "[2]", "value": "at least 50%"}, {"measurement": "resedation after atipamezole reversal", "setting": "[3]; medetomidine 20 μg/kg IM alone or with MK-467 400 μg/kg in the same syringe, atipamezole 100 μg/kg IM at 30 min", "value": "resedation seen"}]}
{"smiles": "CCC1(c2cnc[nH]2)Cc2ccccc2C1", "note": "[atipamezole]", "values": [{"measurement": "reversal of medetomidine induced sedation", "setting": "[3]; atipamezole 100 μg/kg IM at 30 min after medetomidine 20 μg/kg IM alone or with MK-467 400 μg/kg", "value": "reversed"}]}
{"smiles": "Cc1cccc([C@H](C)c2c[nH]cn2)c1C", "note": "[dexmedetomidine, (S)-4-[1-(2,3-Dimethylphenyl)ethyl]-3H-imidazole]", "values": [{"measurement": "BIS-values (bispectral index)", "setting": "[4]", "value": "decreased"}]}
